# Source: patent publication US20240279302A1, “OLFACTORY RECEPTOR EXPRESSING METHOD AND RESPONSE MEASUREMENT METHOD” (Kao Corporation, priority 2021, published 2024)
# Where a chain is given by its changes, count along the chain named.
# T1: OR2T11 (Homo sapiens, UniProt Q8NH01)
# T1 sequence (Q8NH01 1-316): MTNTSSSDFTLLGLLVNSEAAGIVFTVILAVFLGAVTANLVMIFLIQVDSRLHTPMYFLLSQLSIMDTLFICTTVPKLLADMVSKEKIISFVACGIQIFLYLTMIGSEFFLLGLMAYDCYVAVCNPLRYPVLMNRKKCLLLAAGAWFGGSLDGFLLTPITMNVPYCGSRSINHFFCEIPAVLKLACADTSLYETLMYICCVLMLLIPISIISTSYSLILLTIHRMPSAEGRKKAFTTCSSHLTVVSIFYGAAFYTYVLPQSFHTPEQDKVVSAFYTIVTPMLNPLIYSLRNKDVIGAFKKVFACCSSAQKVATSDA
# B1: consensus OR2T29: consensus olfactory receptor polypeptide (protein)
# chain: MANITWMANHTGRSDFILVGLFSQSKHPALLCVVIFVVFLMALSGNAILILLIHSDAHLHTPMYFFISQLSLMDVMYISVTVPKMLMDQVMGVNKISAPECGMQMFLYLTLAGSEFFLLAAMAYDRYVAICHPLRYPVLMNHRVCLLLVSGCWFLGSVDGFMLTPITMTFPFCRSREIHHFFCEVPAVMKLSCSDTSLYETLMYLCCVLMLLIPVTVISSSYSFILLTIHRMNSAEGRKKAFATCSSHMTVVILFYGAAVYTYMLPSSYHTPEKDMMVSVFYTILTPVLNPLIYSLRNKDVTGALKKMLNVGSVFQETIK
# modifications: OR2T29 consensus-c
# notes: consensus olfactory receptor polypeptide
# B2: consensus OR2T5: consensus olfactory receptor polypeptide (protein)
# chain: B1 chain with R13K, V149A
# modifications: OR2T5 consensus-c
# notes: as for B1
# B3: consensus OR2T1: consensus olfactory receptor polypeptide (protein)
# chain: MEEYNTSSTDFTFMGLFNRKETSGLLFAIISIIFFTALMANGVMIFLIQTDLRLHTPMYFLLSHLSFIDMMYISTIVPKMLVDYLLGQRTISFVGCTAQHFLYLTLVGAEFFLLGLMAYDRYVAICNPLRYPVLMSRRVCWMIIAGSWFGGSLDGFLLTPITMSFPFCNSREINHFFCEAPAVLKLACADTALYETVMYVCCVLMLLIPFSVVIASYARILTTVHRMSSVEGRKKAFATCSSHMTVVTLFYGAAMYTYMLPHSYHKPAQDKVFSVFYTILTPMLNPLIYSLRNKDVTGALKRALGRFKGPQRVSGGVF
# modifications: OR2T1 consensus-c
# notes: as for B1
# B4: consensus OR4K17: consensus olfactory receptor polypeptide (protein)
# chain: MESMELLNQSQVSEFILLGLTSSQDIQFLLFALFSVIYVVTVLGNLLIVVTVFNTPNLNTPMYFLLGNLSFVDMTLASFATPKMILNLVKKQKTISFAGCFTQIFLLHLLGGVEMVLLVSMAYDRYVAICKPLHYMTIMNKKVCVLLVVTSWLLGLLHSGLQIPFVVNLPFCGPNVVDSIFCDLPLVTKLACIDTYFVQIVIVANSGMISLSCFIILLISYSLILITIRNHSSTGQSKARSTLTAHITVVILFFGPCIFIYIWPFSNHSVDKFLAVFYTIITPILNPIIYTLRNKEMKTAMKKLWRAFVNSREDT
# modifications: OR4K17 consensus-c
# notes: as for B1
# B5: consensus OR2T4: consensus olfactory receptor polypeptide (protein)
# chain: MANITWMANHTGWSDFILVGLFRQSKHPALLCVVIFVVFLMALSGNAVLILLIHSDAHLHTPMYFFISQLSLMDMMYISVTVPKMLLDQVMGVNKISAPECGMQMFLYVTLAGSEFFLLATMAYDRYVAICHPLRYPVLMNHRVCLFLASGCWFLGSVDGFTFTPITMTFPFCRSREIHHFFCEVPAVLKLSCSDTSLYEIFMYLCCVLMLLIPVTVISSSYLFILLTIHRMNSAEGRKKAFATCSSHMTVVILFYGAAIYTYMLPSSYHTPEKDMMVSVFYTILTPVLNPLIYSLRNKDVMGALKKMLNVGPVFQETMK
# modifications: OR2T4 consensus-c
# notes: as for B1
# B6: OR4S2: original human olfactory receptor OR4S2, SEQ ID NO: 18 (protein, listed as Homo sapiens)
# chain: MEKINNVTEFIFWGLSQSPEIEKVCFVVFSFFYIIILLGNLLIMLTVCLSNLFKSPMYFFLSFLSFVDICYSSVTAPKMIVDLLAKDKTISYVGCMLQLFGVHFFGCTEIFILTVMAYDRYVAICKPLHYMTIMNRETCNKMLLGTWVGGFLHSIIQVALVVQLPFCGPNEIDHYFCDVHPVLKLACTETYIVGVVVTANSGTIALGSFVILLISYSIILVSLRKQSAEGRRKALSTCGSHIAMVVIFFGPCTFMYMRPDTTFSEDKMVAVFYTIITPMLNPLIYTLRNAEVKNAMKKLWGRNVFLEAKGK
# B7: consensus OR4E2: consensus olfactory receptor polypeptide (protein)
# chain: MDSLNQTRVTEFVFLGLTDNWVLEILFFMAFSAIYVLTLLGNILIIVTIVFTPRLHTPMYFFLSNLSFIDICHSSVTVPKMLEGLLLERKTISFDNCIAQLFFLHLFACAEIFLLTIMAYDRYVAICTPLHYPNVMNMRVCVQLVFALWLGGTVHSLVQTFLTIRLPYCGPNIIDSYFCDVPPVIKLACTDTYLTGMLIVSNSGTISLTCFLALVTSYTVILVSLRKQSAEGRRKALSTCSAHFMVVALFFGPCIFIYTRPDTSFSIDKVVSVFYTVVTPLLNPLIYTLRNEEVKSAMKQLRQRQVFFTKSY
# modifications: OR4E2 consensus-c
# notes: as for B1
# B8: consensus OR2T27: consensus olfactory receptor polypeptide (protein)
# chain: MEWGNYSMYADFVLLGLFSNTRFPWLLFALILLVFVISIASNTVMIILIHIDSRLHTPMYFLLSQLSLMDILYISTIVPKMLVDQVMGQRAISFAGCTAQHFLYLTLAGAEFFLLGLMSYDRYVAICNPLRYPVLMSRKVCLLIVAAAWLGGSIDGFLLTPVTMQFPFCASREINHFFCEVPALLKLSCTDTSAYETAMYVCCIMMLLIPFSVISASYTRILITVYRMSEAEGRRKAVATCSSHMVVVSLFYGAAMYTYVLPHSYHTPEQDKAVSAFYTILTPMLNPLIYSLRNKDVTGALQKALGRCVSSGKVTTF
# modifications: OR2T27 consensus-c
# notes: as for B1
# Target: T1, OR2T11
# Experiment: not given
# Settings: Block E et al., Nat. Prod. Rep. 2017; cited from earlier work
row,Molecule,response of OR2T11
1,CCCCS [1-butanethiol],responds
2,CCCS [1-propanethiol],responds
3,CCC(C)S (stereo not drawn) [2-butanethiol],responds
4,CC(C)CS [2-methyl-1-propanethiol],responds
5,CC(C)(C)S [2-methyl-2-propanethiol],responds
6,CCCC(C)S (stereo not drawn) [2-pentanethiol],responds
7,CC(C)S [2-propanethiol],responds
8,CC(C)C(C)S (stereo not drawn) [3-methyl-2-butanethiol],responds
9,SC1CCCC1 [cyclopentanethiol],responds
10,CCS [ethanethiol],responds

# System: HEK293 cells expressing olfactory receptor
# Experiment: Luciferase assay: signal to 100 μM sulfur compounds in the presence or absence of a copper ion
# Assay type: cell-based, human
# Settings: 100 μM odorant
# Description: A reaction solution as to each consensus olfactory receptor prepared in Examples described above was prepared according to the composition shown in Table 4, left standing for 20 minutes in a clean bench, and then added to each well of a 96-well plate (Becton, Dickinson and Company). The original olfactory receptor was used as to OR4S2. Composition shown in Table 20 was used as to OR11H2 and OR4E2. Subsequently, 100 μL of HEK293 cells suspended in DMEM (Nacalai Tesque, Inc.) was inoculated at 2×10^5 cells/cm^2 to each well, and cultured for 24 hours in an incubator kept at 37° C. and 5% CO2. Cells expressing no olfactory receptor (Mock) were provided as a control.
# […] Under a copper ion addition condition, the test substance solution was adjusted to contain 30 μM copper(II) chloride (FUJIFILM Wako Pure Chemical Corp.) in addition to the odorant. The cells were cultured for 4 hours in a CO2 incubator and the luciferase gene was expressed sufficiently in the cells. Luciferase activity was measured using Dual-Glo™ luciferase assay system (Promega Corp.) in accordance with the operation manual of the product. A luminescence value derived from firefly luciferase induced by test substance stimulation in each well of the 96-well plate was divided by a luminescence value derived from Renilla luciferase to calculate a value (fluc/hRluc) as a signal, which was then used in analysis. The signal under each transfection condition was normalized with the signal value (fluc/hRluc) under an odorant stimulation-free condition defined as 0% and the signal value (fluc/hRluc) by stimulation with 10 μM forskolin defined as 100%, and used as a response (%) in analysis.
row,Molecule,"responsiveness to methyl mercaptan, dimethyl sulfide, dimethyl disulfide, or dimethyl trisulfide in the presence of a copper ion in comparison with that in the absence"
1,B1,improved in responsiveness
2,B2,improved in responsiveness
3,B3,improved in responsiveness
4,B4,improved in responsiveness
5,B5,improved in responsiveness
6,B6,improved in responsiveness
7,B7,improved in responsiveness
8,B8,improved in responsiveness
